Experimental data: patent US20230287021A1, “COMPOUNDS, COMPOSITIONS AND METHODS FOR STABILIZING TRANSTHYRETIN AND INHIBITING TRANSTHYRETIN MISFOLDING” (Protego Biopharma, Inc., priority 2020, published 2023)
Where a name gives a salt, the structure may show the parent alone.

Test: In vitro rat plasma stability assay, formation of tafamidis
Format: in vitro ADME
Settings: 37° C., 2 µM test compound
Protocol: A stability assay in plasma (rat or human) was used to evaluate the ability of a compound provided herein to convert to an active TTR stabilizer. The test compound was added to plasma and incubated at 37° C. in a water bath at a concentration of 2 µM. At each time point (0, 10, 30, 60 and 120 min or 0, 60, 120, 180 and 240 min), stop solution (tolbutamide plus labetalol) was added to precipitate protein and mixed thoroughly. After centrifugation, an aliquot of supernatant was analyzed by LC-MS/MS. The percentage of formation of active agent was calculated at each time point.

Formation of tafamidis at 120 min, C (C is ≥50 to <75%):
CC(C)(C)OC(=O)N[C@@H](Cc1ccc(OC(=O)c2ccc3nc(-c4cc(Cl)cc(Cl)c4)oc3c2)cc1)C(=O)OCc1ccccc1 [Compound 18, (S)-4-(3-(benzyloxy)-2-((tert-butoxycarbonyl)amino)-3-oxopropyl) phenyl 2-(3,5-dichlorophenyl)benzo[d]oxazole-6-carboxylate]
CC(C)(C)OC(=O)NCCCOC(=O)c1ccc2nc(-c3cc(Cl)cc(Cl)c3)oc2c1 [Compound 31, 3-((tert-butoxycarbonyl)amino)propyl 2-(3,5-dichlorophenyl) benzo [d]oxazole-6-carboxylate]
CCN(C)CCOC(=O)c1ccc2nc(-c3cc(Cl)cc(Cl)c3)oc2c1 [Compound 43]
C[C@@H](COC(=O)c1ccc2nc(-c3cc(Cl)cc(Cl)c3)oc2c1)N(C)C [Compound 44, (S)-2-(dimethylamino)propyl 2-(3,5-dichlorophenyl)benzo[d] oxazole-6-carboxylate]
C[C@H](COC(=O)c1ccc2nc(-c3cc(Cl)cc(Cl)c3)oc2c1)N(C)C [Compound 45, (R)-2-(dimethylamino)propyl 2-(3,5-dichlorophenyl)benzo[d] oxazole-6-carboxylate]

Formation of tafamidis at 120 min, A (A is <25%):
O=C(OCCC[n+]1ccccc1)c1ccc2nc(-c3cc(Cl)cc(Cl)c3)oc2c1.[Br-] [Compound 3, 1-(3-(2-(3,5-Dichlorophenyl)benzo[d]oxazole-6-carbonyloxy)propyl)-pyridinium bromide]
O=C(OCCC[P+](c1ccccc1)(c1ccccc1)c1ccccc1)c1ccc2nc(-c3cc(Cl)cc(Cl)c3)oc2c1.[Br-] [Compound 4, (3-(2-(3,5-Dichlorophenyl)benzo[d]oxazole-6-carbonyloxy)propyl) triphenylphosphonium bromide]
O=C(OC[C@H]1O[C@@H](O)C(O)[C@H](O)C1O)c1ccc2nc(-c3cc(Cl)cc(Cl)c3)oc2c1 (stereo partly shown) [Compound 5, (3,4,5,6-Tetrahydroxytetrahydro-2H-pyran-2-yl)methyl 2-(3,5-Dichlorophenyl) Benzo[d]oxazole-6-Carboxylate]
CNCCOC(=O)c1ccc2nc(-c3cc(Cl)cc(Cl)c3)oc2c1 [Compound 9, 2-(methylamino)ethyl 2-(3,5-dichlorophenyl)benzo[d]oxazole-6-carboxylate hydrochloride]
CC(C)(C)OC(=O)NCCOC(=O)c1ccc2nc(-c3cc(Cl)cc(Cl)c3)oc2c1 [Compound 10, 2-((tert-butoxycarbonyl)amino)ethyl 2-(3,5-dichlorophenyl) benzo [d]oxazole-6-carboxylate]
CC(C)(C)OC(=O)N1CCC(OC(=O)c2ccc3nc(-c4cc(Cl)cc(Cl)c4)oc3c2)CC1 [Compound 12, 1-(tert-butoxycarbonyl)piperidin-4-yl 2-(3,5-dichlorophenyl)benzo [d]oxazole-6-carboxylate]
NCCOC(=O)c1ccc2nc(-c3cc(Cl)cc(Cl)c3)oc2c1 [Compound 15, 2-aminoethyl 2-(3,5-dichlorophenyl)benzo[d]oxazole-6-carboxylate]
NCCCOC(=O)c1ccc2nc(-c3cc(Cl)cc(Cl)c3)oc2c1 [Compound 25, 3-aminopropyl 2-(3,5-dichlorophenyl)benzo[d]oxazole-6-carboxylate hydrochloride]
C[N+](C)(C)CCOC(=O)c1ccc2nc(-c3cc(Cl)cc(Cl)c3)oc2c1.[Cl-] [Compound 29, 2-((2-(3,5-dichlorophenyl)benzo[d]oxazole-6-carbonyl)oxy)-N,N,N-trimethylethanaminium chloride]
O=C(NCCO)c1ccc2nc(-c3cc(Cl)cc(Cl)c3)oc2c1 [Compound 64, 2-(3,5-dichlorophenyl)-N-(2-hydroxyethyl)benzo[d]oxazole-6-carboxamide]
CN(CCO)C(=O)c1ccc2nc(-c3cc(Cl)cc(Cl)c3)oc2c1 [Compound 65, 2-(3,5-dichlorophenyl)-N-(2-hydroxyethyl)-N-methylbenzo [d] oxazole-6-carboxamide]
O=C(NCC(F)(F)F)c1ccc2nc(-c3cc(Cl)cc(Cl)c3)oc2c1 [Compound 67, 2-(3,5-dichlorophenyl)-N-(2,2,2-trifluoroethyl)benzo[d] oxazole-6-carboxamide]
O=C(NCCCO)c1ccc2nc(-c3cc(Cl)cc(Cl)c3)oc2c1 [Compound 68, 2-(3,5-dichlorophenyl)-N-(3-hydroxypropyl)benzo[d]oxazole-6-carboxamide]
CC(C)(C)OC(=O)N[C@H](Cc1ccc(OC(=O)c2ccc3nc(-c4cc(Cl)cc(Cl)c4)oc3c2)cc1)C(=O)OCc1ccccc1 [Compound 69]

Formation of tafamidis at 120 min, B (B is ≥25 to <50%):
CC(=O)OCC(COC(C)=O)OC(=O)c1ccc2nc(-c3cc(Cl)cc(Cl)c3)oc2c1 [Compound 2, 2-(2-(3,5-Dichlorophenyl)benzo[d]oxazole-6-carbonyloxy)propane-1,3-diyl diacetate]
CC(C)(C)OC(=O)N1CCC(OC(=O)c2ccc3nc(-c4cc(Cl)cc(Cl)c4)oc3c2)C1 (stereo not shown) [Compound 16, 1-(tert-butoxycarbonyl)pyrrolidin-3-yl 2-(3,5-dichlorophenyl) benzo[d]oxazole-6-carboxylate]
CC(C)(C)OC(=O)N[C@@H](Cc1cccc(OC(=O)c2ccc3nc(-c4cc(Cl)cc(Cl)c4)oc3c2)c1)C(=O)OCc1ccccc1 [Compound 19, (S)-3-(3-(benzyloxy)-2-((tert-butoxycarbonyl)amino)-3-oxopropyl) phenyl 2-(3,5-dichlorophenyl)benzo[d]oxazole-6-carboxylate]
CC(C)(C)OC(=O)N[C@@H](Cc1cccc(OC(=O)c2ccc3nc(-c4cc(Cl)cc(Cl)c4)oc3c2)c1)C(=O)O [Compound 20, (S)-2-((tert-butoxycarbonyl)amino)-3-(3-((2-(3,5-dichlorophenyl)benzo [d]oxazole-6-carbonyl)oxy)phenyl)propanoic acid]
O=C(OC1CCOC1=O)c1ccc2nc(-c3cc(Cl)cc(Cl)c3)oc2c1 (stereo not shown) [Compound 21]
Cc1oc(=O)n(C)c1COC(=O)c1ccc2nc(-c3cc(Cl)cc(Cl)c3)oc2c1 [Compound 30, (3,5-dimethyl-2-oxo-2,3-dihydrooxazol-4-yl)methyl 2-(3,5-dichlorophenyl) benzo[d]oxazole-6-carboxylate]
CC(C)(C)OC(=O)N[C@H](Cc1cccc(OC(=O)c2ccc3nc(-c4cc(Cl)cc(Cl)c4)oc3c2)c1)C(=O)OCc1ccccc1 [Compound 63]
CC(C)(C)OC(=O)N[C@H](Cc1ccc(OC(=O)c2ccc3nc(-c4cc(Cl)cc(Cl)c4)oc3c2)cc1)C(=O)O [Compound 70]

Formation of tafamidis at 120 min, D (D is ≥75%):
CN(C)CCOC(=O)c1ccc2nc(-c3cc(Cl)cc(Cl)c3)oc2c1 [Compound 6, 2-(dimethylamino)ethyl 2-(3,5-dichlorophenyl)benzo-[d]oxazole-6-carboxylate hydrochloride]
CN(CCOC(=O)c1ccc2nc(-c3cc(Cl)cc(Cl)c3)oc2c1)C(=O)OC(C)(C)C [Compound 8, 2-((tert-butoxycarbonyl)(methyl)amino)ethyl 2-(3,5-dichlorophenyl) benzo[d] oxazole-6-carboxylate]
CC(C)(C)OC(=O)N[C@@H](Cc1ccc(OC(=O)c2ccc3nc(-c4cc(Cl)cc(Cl)c4)oc3c2)cc1)C(=O)O [Compound 22, (S)-2-((tert-butoxycarbonyl)amino)-3-(4-((2-(3,5-dichlorophenyl)benzo[d]oxazole-6-carbonyl)oxy)phenyl)propanoic acid]
Cc1oc(=O)oc1COC(=O)c1ccc2nc(-c3cc(Cl)cc(Cl)c3)oc2c1 [Compound 24, (5-methyl-2-oxo-1,3-dioxol-4-yl)methyl 2-(3,5-dichlorophenyl)benzo[d] oxazole-6-carboxylate]
CN(C)CCCCCOC(=O)c1ccc2nc(-c3cc(Cl)cc(Cl)c3)oc2c1 [Compound 51, 5-(dimethylamino)pentyl 2-(3,5-dichlorophenyl)benzo[d] oxazole-6-carboxylate]
CN(C)C(CO)COC(=O)c1ccc2nc(-c3cc(Cl)cc(Cl)c3)oc2c1 (stereo not shown) [Compound 55, 2-(dimethylamino)-3-hydroxypropyl 2-(3,5-dichlorophenyl) benzo [d]oxazole-6-carboxylate]
CN1C[C@@H](O)[C@H](OC(=O)c2ccc3nc(-c4cc(Cl)cc(Cl)c4)oc3c2)C1 [Compound 56, (3R,4R)-4-hydroxy-1-methylpyrrolidin-3-yl 2-(3,5-dichlorophenyl)benzo[d] oxazole-6-carboxylate]
